Earlier results on one compound are cited in patent publication US20080274215A1, “COMPOSITION FOR TREATMENT OF COLD AND FLU” (NORTHERN HOLDINGS INC., priority 2007, published 2008).

Molecules are shown by their SMILES.

Consider `C=C1CCC2C(C)(CO)C(O)CCC2(C)C1C/C=C1/C(=O)OCC1O` (stereo not shown) [AG, 3-[2-[decahydro-6-hydroxy-5-(hydroxymethyl)-5,8a-dimethyl-2-methylene-1-napthalenyl]ethylidene]dihydro-4-hydroxy-2(3H)-furanone], for which the solubility in water result is reported as “sparingly soluble”.
